Results from the supplement of paper PMC10307832.

Tests used:
Experiment in all cases: relative viability (nuclei count vs DMSO), 5 days (fraction); higher = more cells survive
[1] = compound: CN(C/C=C/C1=CC=C(C=C1)Cl)CC2=CC=CC=C2N(CCO)S(=O)(=O)C3=CC=C(C=C3)OC [KN-93] + Cc1nc(NC(=O)N2CCC[C@H]2C(N)=O)sc1-c1ccnc(C(C)(C)C(F)(F)F)c1 [Alpelisib] (partner 2 µM)
Procedure, shortened: (§1)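 Medians of duplicate plates are given as relative viability. That measure is the nuclei count in treated wells divided by the count in vehicle wells. Counts were taken on 4× images of lung cancer cell lines in 1536-well plates, 5 days after pin-tool dosing the day after seeding with one drug alone or a fixed anchor-drug dose plus five library-drug doses (not always all listed) in √10 steps.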

[2] = compound: CN(C/C=C/C1=CC=C(C=C1)Cl)CC2=CC=CC=C2N(CCO)S(=O)(=O)C3=CC=C(C=C3)OC [KN-93] + CC(C)C[C@H](NC(=O)[C@H](Cc1ccccc1)NC(=O)c1cnccn1)B(O)O [Bortezomib] (partner 0.002 µM)
Procedure, shortened: as §1

[3] = compound: CN(C/C=C/C1=CC=C(C=C1)Cl)CC2=CC=CC=C2N(CCO)S(=O)(=O)C3=CC=C(C=C3)OC [KN-93] + CS(=O)(=O)N1CCN(Cc2cc3nc(-c4cccc5[nH]ncc45)nc(N4CCOCC4)c3s2)CC1 [Pictilisib] (partner 1 µM)
Procedure, shortened: as §1

[4] = compound: CN(C/C=C/C1=CC=C(C=C1)Cl)CC2=CC=CC=C2N(CCO)S(=O)(=O)C3=CC=C(C=C3)OC [KN-93] + C[C@@H](Oc1cc(-c2cnn(C3CCNCC3)c2)cnc1N)c1c(Cl)ccc(F)c1Cl [Crizotinib] (partner 1 µM)
Procedure, shortened: as §1

[5] = compound: CN(C/C=C/C1=CC=C(C=C1)Cl)CC2=CC=CC=C2N(CCO)S(=O)(=O)C3=CC=C(C=C3)OC [KN-93] + C[C@]1(O)C[C@@H](c2nc(-c3ccc4ccc(-c5ccccc5)nc4c3)c3c(N)nccn32)C1 [Linsitinib] (partner 1 µM)
Procedure, shortened: as §1

| Cell Line | relative viability ([1]; first compound 0.08 µM) | relative viability ([1]; first compound 0.253 µM) | relative viability ([1]; first compound 2.53 µM) | relative viability ([1]; first compound 8 µM) | relative viability ([2]; first compound 0.08 µM) | relative viability ([2]; first compound 0.253 µM) | relative viability ([2]; first compound 2.53 µM) | relative viability ([2]; first compound 8 µM) | relative viability ([3]; first compound 0.08 µM) | relative viability ([3]; first compound 0.253 µM) | relative viability ([3]; first compound 2.53 µM) | relative viability ([3]; first compound 8 µM) | relative viability ([4]; first compound 0.08 µM) | relative viability ([4]; first compound 0.253 µM) | relative viability ([4]; first compound 2.53 µM) | relative viability ([4]; first compound 8 µM) | relative viability ([5]; first compound 0.08 µM) | relative viability ([5]; first compound 0.253 µM) | relative viability ([5]; first compound 2.53 µM) | relative viability ([5]; first compound 8 µM) |
| --- | --- | --- | --- | --- | --- | --- | --- | --- | --- | --- | --- | --- | --- | --- | --- | --- | --- | --- | --- | --- |
| NCI-H661 | 0.578 | 0.597 | 0.796 | 0.161 | 0.735 | 0.901 | 0.713 | 0.665 | 0.396 | 0.417 | 0.336 | 0.253 | 0.855 | 0.875 | 0.988 | 0.761 | 0.502 | 0.531 | 0.433 | 0.562 |
| NCI-H727 | 0.466 | 0.525 | 0.563 | 0.378 | 0.66 | 0.853 | 0.785 | 0.391 | 0.434 | 0.264 | 0.379 | 0.231 | 0.667 | 1 | 0.637 | 0.429 | 0.292 | 0.223 | 0.256 | 0.223 |
| NCI-H838 | 0.989 | 0.911 | 1.09 | 0.887 | 0.735 | 0.919 | 1.16 | 0.796 | 0.556 | 0.378 | 0.391 | 0.362 | 0.764 | 0.86 | 0.94 | 0.7 | 0.989 | 0.905 | 1.15 | 0.771 |
